In the NIST ThermoML archive (doi:10.1021/je300280s):
Several values for one entry are separate records, joined by “and”; a condition that tells them apart may be missing. Equal entries are not always repeated. ± gives the expanded uncertainty stated by the source.

How the values were obtained:
[1] = xn = mol fraction of the nth substance listed; details: 101.3 kPa, Liquid, Vibrating tube method
[2] = excess molar enthalpy (molar enthalpy of mixing); xn = mol fraction of the nth substance listed; details: 101.3 kPa, Liquid, Flow calorimetry

CCCOC(C)=O [propyl ethanoate] + O
Details	excess molar enthalpy, [2]	mass density, [1]
288.15 K, x1 = 0.000935	-0.00273 ± 0.000206 kcal/mol	999.019 ± 0.033 kg/m3
288.15 K, x1 = 0.001246	-0.00364 ± 0.000213 kcal/mol	998.986 ± 0.033 kg/m3
288.15 K, x1 = 0.001248	-0.00363 ± 0.000213 kcal/mol	998.988 ± 0.033 kg/m3
288.15 K, x1 = 0.001558	-0.00452 ± 0.00022 kcal/mol	998.959 ± 0.033 kg/m3
288.15 K, x1 = 0.00156	-0.00446 ± 0.00022 kcal/mol	998.962 ± 0.033 kg/m3
288.15 K, x1 = 0.001869	-0.00535 ± 0.000227 kcal/mol	998.934 ± 0.033 kg/m3
288.15 K, x1 = 0.001871	-0.00534 ± 0.000227 kcal/mol	998.936 ± 0.033 kg/m3
288.15 K, x1 = 0.00218	-0.0062 ± 0.000234 kcal/mol	998.909 ± 0.033 kg/m3
288.15 K, x1 = 0.002182	-0.00616 ± 0.000232 kcal/mol	998.906 ± 0.033 kg/m3
288.15 K, x1 = 0.002491	-0.00703 ± 0.000239 kcal/mol	998.876 ± 0.033 kg/m3
288.15 K, x1 = 0.002494	-0.00708 ± 0.000239 kcal/mol	998.882 ± 0.033 kg/m3
298.15 K, x1 = 0.000935	-0.00206 ± 0.000201 kcal/mol	996.903 ± 0.1 kg/m3
298.15 K, x1 = 0.000936	-0.0021 ± 0.000201 kcal/mol	996.9 ± 0.034 kg/m3
298.15 K, x1 = 0.000937	-0.00212 ± 0.000201 kcal/mol	996.898 ± 0.1 kg/m3
298.15 K, x1 = 0.001247	-0.00274 ± 0.000206 kcal/mol	996.856 ± 0.13 kg/m3
298.15 K, x1 = 0.001248	-0.00277 ± 0.000206 kcal/mol	996.852 ± 0.034 kg/m3
298.15 K, x1 = 0.001249	-0.00278 ± 0.000206 kcal/mol	996.848 ± 0.13 kg/m3
298.15 K, x1 = 0.001558	-0.00347 ± 0.000213 kcal/mol	996.807 ± 0.17 kg/m3
298.15 K, x1 = 0.00156	-0.00342 kcal/mol and -0.00343 kcal/mol	996.803 ± 0.17 kg/m3 and 996.805 ± 0.17 kg/m3
298.15 K, x1 = 0.001869	-0.00404 ± 0.000217 kcal/mol	996.762 ± 0.16 kg/m3
298.15 K, x1 = 0.001871	-0.00407 ± 0.000217 kcal/mol	996.758 ± 0.2 kg/m3
298.15 K, x1 = 0.001872	-0.00405 ± 0.000217 kcal/mol	996.748 ± 0.035 kg/m3
298.15 K, x1 = 0.002181	-0.00472 ± 0.000222 kcal/mol	996.714 ± 0.22 kg/m3
298.15 K, x1 = 0.002183	-0.00466 kcal/mol and -0.00472 kcal/mol	996.703 ± 0.22 kg/m3 and 996.709 ± 0.23 kg/m3
298.15 K, x1 = 0.002492	-0.00539 ± 0.000227 kcal/mol	996.669 ± 0.27 kg/m3
298.15 K, x1 = 0.002494	–	996.669 ± 0.034 kg/m3
298.15 K, x1 = 0.002495	–	996.655 ± 0.12 kg/m3
308.15 K, x1 = 0.000936	-0.00148 kcal/mol and -0.00147 kcal/mol	993.831 ± 0.037 kg/m3 and 993.832 ± 0.037 kg/m3
308.15 K, x1 = 0.001247	-0.00196 kcal/mol and -0.00197 kcal/mol	993.761 ± 0.037 kg/m3
308.15 K, x1 = 0.001559	-0.00245 kcal/mol and -0.00244 kcal/mol	993.691 ± 0.037 kg/m3 and 993.692 ± 0.037 kg/m3
308.15 K, x1 = 0.00187	-0.00286 kcal/mol and -0.00292 kcal/mol	993.628 ± 0.037 kg/m3 and 993.621 ± 0.037 kg/m3
308.15 K, x1 = 0.002181	-0.00332 kcal/mol and -0.00334 kcal/mol	993.559 ± 0.037 kg/m3 and 993.557 ± 0.037 kg/m3
308.15 K, x1 = 0.002492	-0.0037 kcal/mol and -0.00371 kcal/mol	993.5 ± 0.037 kg/m3 and 993.503 ± 0.037 kg/m3
318.15 K, x1 = 0.000936	-0.000911 ± 0.000191 kcal/mol	989.957 ± 0.039 kg/m3
318.15 K, x1 = 0.000937	-0.000932 ± 0.000191 kcal/mol	989.951 ± 0.039 kg/m3
318.15 K, x1 = 0.001247	-0.00119 ± 0.000194 kcal/mol	989.872 ± 0.039 kg/m3
318.15 K, x1 = 0.001248	-0.00122 ± 0.000194 kcal/mol	989.86 ± 0.039 kg/m3
318.15 K, x1 = 0.001559	-0.00148 ± 0.000196 kcal/mol	989.782 ± 0.04 kg/m3
318.15 K, x1 = 0.001561	-0.00148 ± 0.000196 kcal/mol	989.779 ± 0.04 kg/m3
318.15 K, x1 = 0.00187	-0.00175 ± 0.000198 kcal/mol	989.693 ± 0.04 kg/m3
318.15 K, x1 = 0.001873	-0.00172 ± 0.000198 kcal/mol	989.698 ± 0.04 kg/m3
318.15 K, x1 = 0.002182	-0.00201 ± 0.000201 kcal/mol	989.605 ± 0.04 kg/m3
318.15 K, x1 = 0.002184	-0.00198 ± 0.000201 kcal/mol	989.612 ± 0.04 kg/m3
318.15 K, x1 = 0.002493	-0.00221 ± 0.000203 kcal/mol	989.536 ± 0.04 kg/m3
318.15 K, x1 = 0.002496	-0.00221 ± 0.000203 kcal/mol	989.532 ± 0.04 kg/m3
